Measurements: article PMC8245910 (Acta Pharmaceutica Sinica. B, 2021)

Key:
wild-type TF-1 = assay: 2-HG reducing assay in cell; format: cell-based
[1] = SD rats; cited from earlier work
MDR1 = MDR1 (Homo sapiens, UniProt P08183); conditions: cited from earlier work
BCRP = molecular target: T1, BCRP (Homo sapiens, UniProt Q9UNQ0); conditions: cited from earlier work
T1 sequence (Q9UNQ0 1-655): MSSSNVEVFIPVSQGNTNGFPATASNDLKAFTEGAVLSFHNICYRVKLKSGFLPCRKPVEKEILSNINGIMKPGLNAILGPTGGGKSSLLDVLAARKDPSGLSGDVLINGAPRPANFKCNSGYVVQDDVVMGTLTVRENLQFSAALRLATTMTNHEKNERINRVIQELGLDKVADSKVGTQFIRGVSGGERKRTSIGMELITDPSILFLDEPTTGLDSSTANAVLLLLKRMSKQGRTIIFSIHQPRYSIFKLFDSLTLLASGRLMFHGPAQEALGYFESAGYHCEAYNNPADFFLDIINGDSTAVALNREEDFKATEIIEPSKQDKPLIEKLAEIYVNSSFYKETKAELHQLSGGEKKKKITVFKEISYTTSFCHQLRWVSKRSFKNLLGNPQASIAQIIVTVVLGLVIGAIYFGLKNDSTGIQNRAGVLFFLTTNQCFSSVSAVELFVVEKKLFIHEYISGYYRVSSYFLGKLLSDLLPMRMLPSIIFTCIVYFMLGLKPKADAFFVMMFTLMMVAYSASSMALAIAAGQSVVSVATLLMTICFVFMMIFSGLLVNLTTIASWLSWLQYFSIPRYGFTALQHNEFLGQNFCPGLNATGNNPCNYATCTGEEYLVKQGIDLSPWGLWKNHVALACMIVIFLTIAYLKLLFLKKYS

Chain of MDR1 (P08183 whole entry): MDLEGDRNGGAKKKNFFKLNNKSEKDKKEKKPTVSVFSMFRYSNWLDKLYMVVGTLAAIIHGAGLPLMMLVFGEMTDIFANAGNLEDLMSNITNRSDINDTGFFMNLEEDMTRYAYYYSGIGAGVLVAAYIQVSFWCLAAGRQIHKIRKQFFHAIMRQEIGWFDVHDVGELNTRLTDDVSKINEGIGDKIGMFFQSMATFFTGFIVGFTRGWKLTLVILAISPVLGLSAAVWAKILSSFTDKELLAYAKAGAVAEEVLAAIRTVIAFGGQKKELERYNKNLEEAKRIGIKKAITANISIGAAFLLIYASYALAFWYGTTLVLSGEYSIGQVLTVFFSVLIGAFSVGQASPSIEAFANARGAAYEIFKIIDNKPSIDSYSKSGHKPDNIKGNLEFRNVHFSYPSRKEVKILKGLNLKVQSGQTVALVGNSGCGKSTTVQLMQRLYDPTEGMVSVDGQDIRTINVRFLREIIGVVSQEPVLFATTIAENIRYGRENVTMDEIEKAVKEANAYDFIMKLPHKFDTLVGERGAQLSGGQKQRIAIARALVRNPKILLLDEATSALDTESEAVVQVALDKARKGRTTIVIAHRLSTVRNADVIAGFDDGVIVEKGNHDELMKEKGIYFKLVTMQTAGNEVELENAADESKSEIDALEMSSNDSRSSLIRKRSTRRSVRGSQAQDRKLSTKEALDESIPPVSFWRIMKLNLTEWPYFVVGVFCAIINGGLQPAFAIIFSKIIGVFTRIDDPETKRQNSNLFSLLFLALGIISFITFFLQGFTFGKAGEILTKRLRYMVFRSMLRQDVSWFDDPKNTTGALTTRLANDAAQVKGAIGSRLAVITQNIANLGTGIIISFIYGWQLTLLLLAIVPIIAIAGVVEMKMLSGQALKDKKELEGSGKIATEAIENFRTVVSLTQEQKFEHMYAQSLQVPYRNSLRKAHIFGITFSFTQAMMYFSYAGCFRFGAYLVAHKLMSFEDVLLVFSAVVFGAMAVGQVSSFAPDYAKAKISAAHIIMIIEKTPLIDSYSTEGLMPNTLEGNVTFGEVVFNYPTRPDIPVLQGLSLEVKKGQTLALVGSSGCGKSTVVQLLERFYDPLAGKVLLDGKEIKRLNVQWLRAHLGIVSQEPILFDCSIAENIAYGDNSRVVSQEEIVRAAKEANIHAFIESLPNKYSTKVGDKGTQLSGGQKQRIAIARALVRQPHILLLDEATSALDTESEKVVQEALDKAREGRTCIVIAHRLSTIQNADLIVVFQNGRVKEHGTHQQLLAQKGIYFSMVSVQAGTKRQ

## CC(C)(O)CNc1nc(Nc2ccnc(C(F)(F)F)c2)nc(-c2cccc(C(F)(F)F)n2)n1 [AG-221, Enasidenib]
wild-type TF-1
  overall concentration of 2-HG: did not change significantly
[1]
  prototype drug in the excrement, share of the total drugs: about 50%
  prototype products and metabolites excreted in feces: > 90%
MDR1
  inhibition of MDR1: strong inhibitor
BCRP
  inhibition of BCRP: strong inhibitor
